In patent publication US8680149B2, “1-amino-alkylcyclohexane derivatives for the treatment of mast cell mediated diseases” (Merz Pharma GmbH & Co. KGaA, priority 2008, dated 2014):

Columns and labels:
[1] = system: human mast cell line HMC-1; assay: Mast cell degranulation in vitro: histamine concentration in culture medium by sandwich-ELISA; assay type: cell-based; conditions: for inhibition of cholinergic agonist-induced mast cell degranulation (histamine concentration in culture supernatant): neramexane 10E-6M to 10E-16M added 5 minutes prior to cholinergic stimulus, histamine determined 10 minutes after addition; for responsiveness of HMC-1 cells (degranulation) at low calcium: low calcium concentration; for induction of mast cell degranulation (histamine concentration in culture supernatant): calcium concentration elevated to 1 mM, histamine 10 minutes after addition
Procedure: The human mast cell line HMC-1 is obtained from J. H. Butterfield (Minnesota, USA) and cultured under standard conditions in RPMI Medium 1640 (GIBCO, Karlsruhe, Germany) at 37° C. For functional assays, the calcium concentration of the medium is adjusted to 1 mM.
The Mast cell degranulation is monitored by determination of histamine concentration in the culture medium using a sandwich-ELISA from IBL (Hamburg, Germany).Histamine concentration is determined in untreated cells, medium without cells, HMC-1 cells treated with calcimycin, (a calcium ionophore,used as positive control). Additional controls to check reagibilty of the cells are LPS (lipopolysaccharide) and PMA (phorbol 12-myristate 13-acetate). Histamine concentration is determined 10 minutes after addition of the respective substances. Nicotine and choline are used as stimulus for nAChR, muscarine as stimulus for mAChR, and a combination of acetylcholine and eserine (an acetylcholinesterase inhibitor) is used as pancholinergic stimulus. Neramexane is tested at concentrations ranging from 10E-6M to 10E-16M and is added to the culture medium 5 minutes prior to the respective cholinergic stimulus. All experiments are performed twice in quadruplicate.
Statistical analysis is performed using the Wilcoxon sum-of-ranks test (available on www.statpages.net).
In order to determine the sensitivity of mast cells towards cholinergic signals, the HMC-1 cell line cultured under standard conditions with either low or high calcium concentrations is used.

[2] = biological target: α9α10 nicotinic Acetylcholine Receptor (Rattus norvegicus, UniProt P43144+Q9JLB5); conditions: cited from earlier work
Chain of α9α10 nicotinic Acetylcholine Receptor (P43144 26-479): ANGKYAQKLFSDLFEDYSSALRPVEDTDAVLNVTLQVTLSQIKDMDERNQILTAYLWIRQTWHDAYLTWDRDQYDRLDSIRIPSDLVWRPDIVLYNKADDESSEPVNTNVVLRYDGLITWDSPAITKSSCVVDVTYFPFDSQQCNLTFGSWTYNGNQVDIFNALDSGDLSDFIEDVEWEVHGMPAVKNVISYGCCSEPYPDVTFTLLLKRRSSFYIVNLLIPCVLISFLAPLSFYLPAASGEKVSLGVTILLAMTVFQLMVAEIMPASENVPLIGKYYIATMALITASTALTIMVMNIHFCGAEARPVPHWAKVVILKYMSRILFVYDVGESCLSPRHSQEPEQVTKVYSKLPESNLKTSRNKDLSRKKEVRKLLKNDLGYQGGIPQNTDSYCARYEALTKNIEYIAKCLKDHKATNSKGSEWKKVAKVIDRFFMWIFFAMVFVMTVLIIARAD
Chain of α9α10 nicotinic Acetylcholine Receptor (Q9JLB5 25-447): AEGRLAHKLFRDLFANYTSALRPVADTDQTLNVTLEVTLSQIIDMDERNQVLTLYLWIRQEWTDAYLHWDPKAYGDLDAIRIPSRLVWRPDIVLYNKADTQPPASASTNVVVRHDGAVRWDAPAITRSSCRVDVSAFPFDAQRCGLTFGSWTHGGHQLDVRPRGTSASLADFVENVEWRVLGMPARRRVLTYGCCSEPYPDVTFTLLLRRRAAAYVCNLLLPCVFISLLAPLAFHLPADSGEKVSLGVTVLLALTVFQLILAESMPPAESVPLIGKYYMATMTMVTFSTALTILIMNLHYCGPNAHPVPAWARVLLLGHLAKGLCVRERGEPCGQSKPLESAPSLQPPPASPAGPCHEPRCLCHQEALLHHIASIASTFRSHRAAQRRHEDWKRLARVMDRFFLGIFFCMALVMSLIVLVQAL

[3] = neramexane at concentrations higher than 1 mM

| SMILES | inhibition of cholinergic agonist-induced mast cell degranulation (histamine concentration in culture supernatant) ([1]; HMC-1 cells, calcium 1 mM) | responsiveness of HMC-1 cells (degranulation) at low calcium [1] | induction of mast cell degranulation (histamine concentration in culture supernatant) ([1]; HMC-1 cells) | further results |
| --- | --- | --- | --- | --- |
| CC1(C)CC(C)(C)CC(C)(N)C1 [Neramexane, 1-amino-1,3,3,5,5-pentamethylcyclohexane] | dose-dependent inhibitory effect |  |  | blockade of α9α10 nicotinic Acetylcholine Receptor [2]: blocker; mode of antagonism at α9α10 nicotinic Acetylcholine Receptor [2]: non-competitive antagonist; dependence of blockage on membrane potential [2, 3]: only slightly dependent on the membrane potential; effect on rate of desensitization [2, 3]: not to modify the rate of desensitization |
| CC1(C)CC(C)(C)CC(C)(N)C1.CS(=O)(=O)O [Neramexane-mesylate] | inhibits the observed effects in equimolar concentrations and, dose-dependently, even in lower concentrations than the respective agonist |  |  |  |
| CNc1ccc2oc(C[C@H]3O[C@@]4(CC[C@H]3C)O[C@H]([C@H](C)C(=O)c3ccc[nH]3)[C@H](C)C[C@H]4C)nc2c1C(=O)O [calcimycine, calcimycin] |  | unresponsive |  |  |
| C[C@@H]1O[C@H](C[N+](C)(C)C)C[C@H]1O [muscarine] |  |  | No histamine liberation |  |
| CN1CCCC1c1cccnc1 (centres unmarked) [nicotine] |  | unresponsive | dose-dependently produce mast cell degranulation | concentration sufficient to induce complete degranulation ([1]; HMC-1 cells, calcium 1 mM): Nanomolar concentrations |
